The text below walks through data of patent US11938129B2, “Methods and compositions for the treatment of vascular disease” (THE GENERAL HOSPITAL CORPORATION, priority 2018, dated 2024).

Experiment [1] concerns H3K27me3. As to the kind of experiment: H3K27me3 staining in aortas of treated Fbn1C1039G/+ mice. It is filed as in vivo, mouse. The settings on record: compared to control or losartan treated mice. On the procedure:
(§1) Latex was injected into the left ventricular apex under low pressure until it was visible in the femoral artery. Animals were then fixed in Formalin (10%) for 24 hours before transfer to 70% ethanol for dissection and storage. Aortas were then removed from the animals or dissected in situ for photography prior to paraffinization and sectioning (10 pM). Slides were produced for tissue staining or stained with standard stains including H&E staining, collagen deposition (Trichrome Stain (Masson) Kit, Sigma, USA), elastin (Verhoeff-Van Gieson, Thermo Scientific, MI, USA) or F-actin (ActinGreen™ 488 ReadyProbes, ThermoFisher Scientific, USA) for quantitative analysis. Elastin integrity score was rated by blinded observers and graded on an arbitrary scale of 5 (indicating high quality elastic fiber) to 1 (indicating severe elastin fragmentation). For nuclear staining aortas from human and mice were cryosectioned using OCT standard protocol as described previously (Fischer et al., 2008). Cohorts of 8-week-old wild-type or Fbn1cw3gGi+ mice were treated with oral administration in drinking water of either Losartan or GSK343 for 20 weeks (FIG. 5). […] Then 200 mL of drinking water was supplemented with 250 pL of GSK343 stock solution. […] Aortic dimensions were monitored monthly by echocardiograms as mentioned above.

The subject of experiment [2] is VSMCs. Kind of experiment: cytoskeletal architecture of VSMCs treated with GSK343. It counts as cell-based, mouse. The method, then: Primary human aortic smooth muscle cells (HAoSMC) from healthy donors were purchased from Cell Applications Inc., California, USA (Cat. #354K-05a). Primary aneurysm aortic SMCs were isolated from fresh TAA tissue at the moment of surgery by standard explant of the aortic media. Mouse aortic SMCs were isolated by standard explant of the ascending section of the aortas from wild-type or Fbn1ci°39G1+ mice. Smooth muscle cell identity was assessed by immunofluorescence staining of contractile markers including SM22a, Calponin, Smoothelin and Vinculin. In order to preserve cell identity all experiments were carried out at passages 1-5 (Timraz et al., 2016). Human and murine SMCs were grown with smooth muscle cell growth medium from Cell Applications Inc. (Cat. #311-500). […] Fresh media containing GSK343 was supplied daily. For GSK343/TGF81 (10 ng/mL) combo treatment, cells were first treated with complete media containing GSK343 at concentration of 10 nM during the 2 first days followed by GSK343/TGFβ combination treatment the next 2 days. Prior to cellular collection cells were washed with sterile PBS and RNA or protein extraction were performed as described above.

For experiment [3], the system named is SM22a. Kind of experiment: immunostaining of SM22a protein in aortas of treated Fbn1C1039G/+ mice. It counts as in vivo, mouse. Particulars: compared to control Fbn1C1039G/+ mice. On the procedure: as §1
Experiment [4] concerns other histone methyltransferases. The settings on record: cited from earlier work.
Experiment [5] relates to MMP2 and MMP9 activity. Kind of experiment: in vivo MMP activity (MMPSense 750 FAST) after carotid ligation. The settings on record: 24 h post injection, ligated mice. Set-up: species or system mouse. On the procedure: Mice were tail vein injected with 600 uL of MMPSense 750 FAST, a near-infrared fluorescence sensor for MMP2 and MMP9 activity, (PerkinElmer, USA). Mice were sacrificed 24 h post injection and aortas were dissected and analyzed using a Kodak image station 4000MM Pro for macroscopic fluorescence reflectance molecular imaging.
Cohorts of 10-week-old wild-type mice were treated with oral administration in drinking water of GSK343 24 hrs before left carotid ligation and following treatment for 3 weeks. GSK343 inhibitor (25 mg) was dissolved in 1 mL of DMSO to obtain a stock solution of 46 mM. Then, 250 ml of drinking water was supplemented with 250 pl of GSK343 stock solution. Control group for was given with equal volumes of sterile water. Bottles containing GSK343 were replaced with fresh water supplied with drug every 3 days. For Malatl antisense LNA treatments, cohorts of 10-week-old wild-type mice were injected with 15 nmol in saline solution 24 hrs before left carotid ligation following by a second injection 7 days post-ligation.

Experiment [6] has as its system SM22a expression in TAA VSMCs. As to the kind of experiment: in vitro GSK343 treatment of isolated TAA VSMCs, SM22a immunoblotting after TGF-β1. It is filed as cell-based, human. Particulars: GSK343, TGF-β1 10 ng/mL. The method, then: Primary human aortic smooth muscle cells (HAoSMC) from healthy donors were purchased from Cell Applications Inc., California, USA (Cat. #354K-05a). Primary aneurysm aortic SMCs were isolated from fresh TAA tissue at the moment of surgery by standard explant of the aortic media. Mouse aortic SMCs were isolated by standard explant of the ascending section of the aortas from wild-type or Fbn1ci°39G1+ mice. Smooth muscle cell identity was assessed by immunofluorescence staining of contractile markers including SM22a, Calponin, Smoothelin and Vinculin. In order to preserve cell identity all experiments were carried out at passages 1-5 (Timraz et al., 2016). Human and murine SMCs were grown with smooth muscle cell growth medium from Cell Applications Inc. (Cat. #311-500). VSMCs at 60-70% confluence were supplemented with opti-MEM 24 hrs before treatment with complete growing media containing GSK343 at a concentration of […] for 4 days. Fresh media containing GSK343 was supplied daily. For GSK343/TGF81 (10 ng/mL) combo treatment, cells were first treated with complete media containing GSK343 at concentration of 10 nM during the 2 first days followed by GSK343/TGFβ combination treatment the next 2 days. Prior to cellular collection cells were washed with sterile PBS and RNA or protein extraction were performed as described above.
In general terms: In western blotting, separated proteins are transferred to a membrane and probed.

“Also recorded” adds a separate entry of the source.

Turning to `CCCc1cc(C)[nH]c(=O)c1CNC(=O)c1cc(-c2ccnc(N3CCN(C)CC3)c2)cc2c1cnn2C(C)C` [GSK343], the “H3K27me3 staining / aortic medial H3K27me3 modifications” value in experiment [1] was “significant suppression of H3K27me3 staining; also recorded: significantly decreased”. In addition, the cytoskeletal architecture result in experiment [2] was “improved cytoskeletal architecture”. Also, in experiment [3], the “SM22a protein expression (immunostaining of aortas)” value was “recovery of SM22a protein expression”. The “selectivity against other histone methyltransferases” value in experiment [4] is recorded as at least 1000 fold. In addition, the “activity of MMPs” value in experiment [5] is “Inhibition of Mmp activity; also recorded: inhibited the activity of MMPs”. For the same molecule, in experiment [6], the “SM22a expression after stimulation with recombinant TGF-β1” value is “recovered the ability to induce SM22a expression”.
